Like-named read-outs stand apart in the source and are kept apart here.
Target: SARS-CoV-2 Papain-Like Protease (PLpro) (Severe acute respiratory syndrome coronavirus 2 (2019-nCoV) (SARS-CoV-2), UniProt P0DTD1)
Assay: biochemical
Conditions: read-out: PLpro IC50
[1] = SARS-CoV-2 PLpro enzymatic fluorescence assay

Row | Structure (SMILES) | IC50 [1] | further results
1 | COc1ccc(Cl)c(C(=O)N[C@H](C)c2cccc3ccccc23)c1 [Compound 132, (R)-2-Chloro-5-methoxy-N-(1-(naphthalen-1-yl)ethyl)benzamide] | – | IC50 (PLpro 6.25 nM, substrate 25 μM, 60 min at 25° C., for more potent compounds PLpro 1 nM, 120 min): > 5000 nM
2 | Cc1cc(Br)c(OCCN(C)C)cc1C(=O)NC1(c2cccc3ccccc23)CC1 [Compound 369, 4-Bromo-5-(2-(dimethylamino)ethoxy)-2-methyl-N-(1-(naphthalen-1-yl)cyclopropyl)benzamide] | < 100 nM | –
3 | Cc1cc2ccn(C3CN(C)C3)c2cc1C(=O)NC1(c2cccc3ccccc23)CC1 [Compound 290, 5-Methyl-1-(1-methylazetidin-3-yl)-N-(1-(naphthalen-1-yl)cyclopropyl)-1H-indole-6-carboxamide] | < 100 nM | –
4 | COc1cc(C2(NC(=O)c3cc(OCCN(C)C)ccc3C)CC2)c2cccnc2c1 [Compound 434, 5-(2-(Dimethylamino)ethoxy)-N-(1-(7-methoxyquinolin-5-yl)cyclopropyl)-2-methylbenzamide] | < 100 nM | –
5 | C=Cc1cc(C2(NC(=O)c3cc(OC[C@@H]4CCN4C)ccc3C)CC2)c2cccnc2c1 [Compound 570, (S)-2-Methyl-5-((1-methylazetidin-2-yl)methoxy)-N-(1-(7-vinylquinolin-5-yl)cyclopropyl)benzamide] | – | IC50 (PLpro enzymatic fluorescence assay, class symbols): < 100 nM

From US20250025443A1, “COMPOUNDS AND METHODS FOR TREATING CORONA VIRUSES” (CLEAR CREEK BIO, INC., priority 2021, published 2025)
